Values after ≈ are worked out from the molar mass of the structure shown. Values belong to the compound of their own block, whether it stands above or below them.
Legend:
[1] = molecular target: human histamine 4 receptor (hH4R) (Homo sapiens (Human), UniProt Q9H3N8); test: Binding affinity of human histamine 4 receptor (hH4R), [3H] labeled histamine displacement; conditions: hH4R-overexpressed cell membrane, [3H] histamine
Summary of the method: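 Membranes of hH4R-overexpressing cells (25 μg) incubated with compound and [3H]histamine (diluted to 1 μM before addition) for 30 min at 27° C. Non-specific binding defined with histamine (100 μM before addition); bound radioligand collected by filtration on PEI-presoaked glass fibre, washed with 50 mM Tris-HCl pH 7.4, counted by scintillation (CPM).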

[2] = molecular target: human histamine 3 receptor (hH3R) (Homo sapiens (Human), UniProt Q9Y5N1); test: Binding affinity of human histamine 3 receptor (hH3R), [3H] labeled N-α-methylhistamine displacement; conditions: hH3R-overexpressed cell membrane, [3H] N-α-methylhistamine
Summary of the method: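 Membranes from cells overexpressing hH3R (15 μg) were incubated with compound and [3H]N-α-methylhistamine (20 μM stock) in 50 mM Tris-HCl pH 7.4, 5 mM MgCl2 for 30 min at 27 °C. Bound radioligand was counted by scintillation after filtration; 200 μM (R)(−)-α-methylhistamine stock defined non-specific binding; IC50 derived.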

[3] = Solubility in artificial gastrointestinal tract solution; assay type: physicochemical; conditions: for solubility at 1 h / solubility at 2 h: artificial gastrointestinal tract solution, thermodynamic from solid; for solubility at 1 h: fassgf or other biorelevant; for solubility at 2 h: fassif
Summary of the method: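 Two media were used: pH 1.2 NaCl/HCl with Triton X-100, and pH 6.5 phosphate buffer with sodium taurocholate and lecithin. Heated sample solutions were filtered to remove undissolved compound, diluted 1:1 with CH3CN, and solubility was measured by liquid chromatography.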

[4] = Mouse pharmacokinetics (oral); assay type: in vivo; conditions: ICR mouse, 5 mg/mL solution at 10 mL/kg; for Cmax / AUC(0-inf) / half-life: plasma, 50 mg/kg; for AUC(0-inf): read-out: Mouse pharmacokinetics AUCinf; for half-life: read-out: Mouse pharmacokinetics t1/2 (converted)
Protocol: (§1) The weight of each ICR mouse and SD rat was properly 20˜30 g and 200˜300 g, and dosage of the compound of the present invention was 10 mL/kg for mice and 5 mL/kg for rats, and administered orally using Zonde. Blood collection was performed at 0.25, 0.5, 1, 2, 4, 6, 8 and 24 hours by orbital venous blood collection using a capillary tube coated with an anticoagulant, and then plasma was isolated using a centrifuge and kept in a freezer.
(§2) Plasma collected from animals and standard concentration material were pretreated using solid-phase extraction, and concentration of the compound of the invention was determined using a liquid chromatography mass spectrometer (Agilent HPLC, API-3000).
(§3) According to the resulting concentration value, the pharmacokinetics parameter was found using WinNonlin (Version 6.2) and half-life (t1/2), maximum blood concentration (Cmax) and infinite area under the curve (AUCinf) are shown in Tables 6 and 7 below.

[5] = Metabolic stability in mouse microsome; conditions: mouse microsome 1 mg/mL, 5 μM compound, 1 mM NADPH
[6] = Metabolic stability in human microsome; conditions: human microsome 1 mg/mL, 5 μM compound, 1 mM NADPH
[7] = molecular target: human serotonin 3 receptor (human 5-HT3 receptor) (Homo sapiens (Human), UniProt P46098); test: Binding affinity of human serotonin 3 receptor (performed at Cerep); conditions: for inhibition at 10 µM: read-out: % inhibition degree at 10 μM, human serotonin 3 receptor (h5-HT3R); for IC50: read-out: Binding affinity (IC50) of human serotonin 3 receptor (h5-HT3R)
Protocol: The binding assays of the human serotonin 3 receptor for present invention were performed at Cerep (Poitiers, France), and the results of analysis are shown in Table 3.

[8] = Rat pharmacokinetics (oral); assay type: in vivo; conditions: SD rat, 2 mg/mL solution at 5 mL/kg
Protocol: as §1, §2, §3

[9] = system: histamine-induced mast cell migration (trachea); test: Histamine-induced mast cell migration; assay type: in vivo, Balb/c mice; conditions: 20 mg/kg oral, 0.1 M histamine aerosol, 2 days
Protocol: Female, Balb/c mice (7 weeks old, 20±3 g) were purchased from OrientBio Co., Ltd.
The animals were housed under conditions of controlled temperature (23±3° C.), humidity (50±5%) and lighting with food and water available ad libitum.
Mice were dosed with either vehicle (20% cyclodextrin in second distilled water) or the compound by orally administration. The Compound (20 mg/kg) dissolved in a vehicle and administered orally at a volume of 10 mL/kg. After 15 minutes, mice were challenged by a 20 min aerosol inhalation of PBS (phosphate buffered saline) or 0.1 M histamine (dissolving in PBS). This process was repeated for 2 days. After a final challenge, the tracheae were cleared of blood via perfusion of PBS and tracheae were extracted, the tracheae were fixed in 10% (w/v) formaldehyde for subsequent paraffin cross-sectioning and toluidine blue staining. Total mast cells were calculated, and a mean was reported. (The Journal of Pharmacology and Experimental Therapeutics, 2004, 309, 404-413). Statistical analysis was analyzed using one-way ANOVA with Dunnett test. Values of p<0.05 were considered statistically significant.

[10] = system: histamine-induced itching, ICR mice; test: Histamine-induced itching model in ICR mice; assay type: in vivo; conditions: 50 mg/kg oral, histamine 300 nmol intradermal, 20 min count
Protocol: Female, ICR mice (8 weeks old) were purchased from OrientBio Co., Ltd. The animals were housed under conditions of controlled temperature (23±3° C.), humidity (50±5%) and lighting with food and water available ad libitum.
The hair was clipped using clippers (8000AD, THRIVE) over the rostral part of the back 24 hours before the experiment under anesthesia with isoflurane. Histamine (300 nmol) was dissolved in saline and a volume of 40 μL injected intradermally into the rostral part of the back. Mice were dosed with either vehicle (20% cyclodextrin in second distilled water) or the compound by orally administration. The Compound (50 mg/kg) dissolved in a vehicle (20% cyclodextrin in second distilled water) and administered orally at a volume of 10 mL/kg.
Mice (n=10 per group) were divided into 3 groups (normal group, control group and experimental group). The animals were randomized for similar body weight distribution. A vehicle or the compound was administered 20 minutes before injection of histamine or saline. Immediately after intradermal injection, the animals were returned to an acrylic cage (approximately 30×30×30 cm, access production) composed of four cells, to which they had been acclimated for at least 1 hour before the experiment, for observation of itch responses. A camera (Samsung, VLUUNV30) was positioned above the mice to record their response. Itch was measured by blinded counting of the number of scratching in the 20 min period immediately after the intradermal injection. A number of scratching was defined as 3 or more individual rapid scratch movements with the hind paws around the injection site (J. Allergy Clin. Immunol. 2007, 19(1), 176-183). All data were analyzed by using Excel and Prism, and all values are expressed as the mean±S.E.M. The inhibitory effect of compounds is shown as a percentage of the maximal response to histamine (100% control group).
Statistical analysis was analyzed using one-way ANOVA with Dunnett test. Values of p<0.05 were considered statistically significant.

[11] = system: oxazolone-induced atopic dermatitis, Balb/c mice; test: Oxazolone-induced atopic dermatitis model in Balb/c mice; assay type: in vivo; conditions: 100 mg/kg, BID, oral, days 8-28
Protocol: Female, Balb/c mice (6 weeks old, 20±3 g) were purchased from OrientBio Co., Ltd. The animals were housed under conditions of controlled temperature (23±3° C.), humidity (50±5%) and lighting with food and water available ad libitum.
On the beginning day (day 1), mice were sensitized by the topical application of 50 μL of 1% oxazolone in acetone and olive oil (4:1 ratio) on the abdominal skin. On day 8, 10, 12, 15, 17, 19, 22, 24 and 26, 25 μL of 0.2% oxazolone was applied topically on the inner side of right ear of each mouse. Between days 8 and 28, the compound of the invention was administered orally (10 mL/kg) twice a day in the morning and afternoon, and on days 12, 19 and 27, the thickness of the right ear of the mouse was measured. On day 28, the ear tissue of the mouse was extracted, fixed in 10% formalin solution, and then a tissue slide was prepared, stained with H&E (hematoxylin & eosin), and then the thickness of the ear was observed (Journal of Investigative Dermatology, 2008, 128, 79-86). Statistical analysis was analyzed using one-way ANOVA with Dunnett test. Values of p<0.05 were considered statistically significant.

[12] = first solution pH 1.2, 2 mg/mL sample, 37° C. 1 hour
[13] = second solution pH 6.5, 2 mg/mL sample, 37° C. 2 hours

Sequence of human histamine 3 receptor (hH3R) (Q9Y5N1 whole entry): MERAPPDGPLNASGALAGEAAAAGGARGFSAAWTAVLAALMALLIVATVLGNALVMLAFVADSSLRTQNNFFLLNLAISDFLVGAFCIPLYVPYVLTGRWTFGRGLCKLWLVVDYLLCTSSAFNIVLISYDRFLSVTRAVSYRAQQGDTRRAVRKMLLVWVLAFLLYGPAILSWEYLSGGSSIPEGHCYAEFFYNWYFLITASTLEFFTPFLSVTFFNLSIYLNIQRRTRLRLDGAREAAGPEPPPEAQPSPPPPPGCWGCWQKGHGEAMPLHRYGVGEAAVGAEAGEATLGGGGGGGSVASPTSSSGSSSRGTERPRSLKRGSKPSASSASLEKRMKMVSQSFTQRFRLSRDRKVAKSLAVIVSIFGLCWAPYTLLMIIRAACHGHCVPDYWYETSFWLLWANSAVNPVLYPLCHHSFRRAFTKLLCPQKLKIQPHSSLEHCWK
Sequence of human serotonin 3 receptor (human 5-HT3 receptor) (P46098 24-478): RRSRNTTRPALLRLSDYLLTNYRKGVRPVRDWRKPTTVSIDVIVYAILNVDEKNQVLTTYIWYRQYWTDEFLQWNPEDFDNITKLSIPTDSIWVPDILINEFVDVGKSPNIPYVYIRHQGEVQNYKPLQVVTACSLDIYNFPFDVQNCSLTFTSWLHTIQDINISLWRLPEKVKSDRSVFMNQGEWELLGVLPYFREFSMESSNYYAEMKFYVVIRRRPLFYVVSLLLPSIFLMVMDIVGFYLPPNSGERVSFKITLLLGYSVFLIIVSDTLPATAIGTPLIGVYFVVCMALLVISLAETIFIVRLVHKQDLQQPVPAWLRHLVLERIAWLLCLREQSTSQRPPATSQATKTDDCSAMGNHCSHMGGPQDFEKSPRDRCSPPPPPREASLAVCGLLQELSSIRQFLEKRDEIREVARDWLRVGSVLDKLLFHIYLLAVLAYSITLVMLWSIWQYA

SMILES: Cc1nc2c3cc(Cl)cnc3nc(N3CCN(C)CC3)n2n1 [Compound 31, 9-Chloro-2-methyl-5-(4-methylpiperazin-1-yl)pyrido[3,2-e][1,2,4]triazolo[1,5-c]pyrimidine]
IC50 [1]: 16 nM
IC50 [2]: > 100000 nM
solubility at 1 h [3, 12]: 2010 µg/mL (≈ 6.33 mM)
solubility at 2 h [3, 13]: 1980 µg/mL (≈ 6.23 mM)
Cmax [4]: 11700 ng/mL
AUC(0-inf) [4]: 22400 ng·h/mL
half-life [4]: 1.79 h
Number of scratching (% changes from control group) [10]: 89.3^1%
Metabolic stability (CLh. int), Mouse [5]: 28630 µL/min/mg
Metabolic stability (CLh. int), Human [6]: 5190 µL/min/mg

SMILES: Cc1nc2c3cc(Cl)cnc3nc(N3CCNCC3)n2n1 [Compound 32, 9-Chloro-2-methyl-5-(piperazin-1-yl)pyrido[3,2-e][1,2,4]triazolo[1,5-c]pyrimidine]
IC50 [1]: 73 nM
IC50 [2]: > 100000 nM
solubility at 1 h [3, 12]: 1350 µg/mL (≈ 4.43 mM)
solubility at 2 h [3, 13]: 1150 µg/mL (≈ 3.79 mM)
Cmax [4]: 10100 ng/mL
AUC(0-inf) [4]: 74900 ng·h/mL
half-life [4]: 5.39 h
Metabolic stability (CLh. int), Mouse [5]: 8390 µL/min/mg
Metabolic stability (CLh. int), Human [6]: 1030 µL/min/mg

SMILES: CNC1CN(c2nc3ncc(Cl)cc3n3nnnc23)C1 [Compound 93, 1-(8-Chloropyrido[2,3-e]tetrazolo[1,5-a]pyrazin-4-yl)-N-methylazetidin-3-amine]
IC50 [1]: 65 nM
IC50 [2]: > 100000 nM
inhibition at 10 µM [7]: 18%
IC50 [7]: > 10000 nM
solubility at 1 h [3, 12]: 1970 µg/mL (≈ 6.78 mM)
solubility at 2 h [3, 13]: 1310 µg/mL (≈ 4.49 mM)
Cmax [4]: 10800 ng/mL
AUC(0-inf) [4]: 121000 ng·h/mL
half-life [4]: 15.6 h
Metabolic stability (CLh. int), Mouse [5]: 9470 µL/min/mg
Metabolic stability (CLh. int), Human [6]: 4480 µL/min/mg

SMILES: CN1CCN(c2nc3ccc(Cl)cc3n3cnnc23)CC1 [reference compound]
IC50 [1]: 22 nM
IC50 [2]: 9000 nM
Solubility, First solution (pH = 1.2) [3, 12]: 1708.3 μg/mL
Solubility, Second solution (pH = 6.5) [3, 13]: 320.1 μg/mL
Mouse pharmacokinetics AUCinf [4]: 6650 ng·h/mL
Mouse pharmacokinetics Cmax [4]: 3840 ng/mL
Mouse pharmacokinetics t1/2 [4]: 3.49 h
Rat pharmacokinetics AUCinf [8]: 1060 ng·h/mL
Rat pharmacokinetics Cmax [8]: 490 ng/mL
Rat pharmacokinetics t1/2 [8]: 1.09 h
Mast cell migration (% change from control group) [9]: 23.1^1%
Ear epidermis thickness (% change from control group) [11]: 8.0%
Metabolic stability (CLh. int), Mouse [5]: 111630 µL/min/mg
Metabolic stability (CLh. int), Human [6]: 10990 µL/min/mg

More lines, main results first:

IC50 [1]: 65 nM
IC50 [2]: > 100000 nM
solubility at 1 h [3, 12]: 1930 µg/mL (≈ 5.78 mM)
solubility at 2 h [3, 13]: 758 µg/mL (≈ 2.27 mM)
Cmax [4]: 8270 ng/mL
AUC(0-inf) [4]: 15900 ng·h/mL
half-life [4]: 1.18 h
Metabolic stability (CLh. int), Mouse [5]: 10420 µL/min/mg
Metabolic stability (CLh. int), Human [6]: 4080 µL/min/mg
SMILES: Brc1cnc2nc(N3CCNCC3)c3nncn3c2c1 [Compound 16, 8-Bromo-4-(piperazin-1-yl)pyrido[2,3-e][1,2,4]triazolo[4,3-a]pyrazine]

IC50 [1]: 100 nM
IC50 [2]: > 100000 nM
inhibition at 10 µM [7]: 0%
IC50 [7]: > 10000 nM
solubility at 1 h [3, 12]: 1930 µg/mL (≈ 6.87 mM)
solubility at 2 h [3, 13]: 1380 µg/mL (≈ 4.94 mM)
Cmax [4]: 9760 ng/mL
AUC(0-inf) [4]: 14000 ng·h/mL
half-life [4]: 1.17 h
Cmax ([8]; plasma, 10 mg/kg): 970 ng/mL
AUC(0-inf) ([8]; plasma, 10 mg/kg, read-out: Rat pharmacokinetics AUCinf): 2920 ng·h/mL
half-life ([8]; plasma, 10 mg/kg, read-out: Rat pharmacokinetics t1/2 (converted)): 2.21 h
Metabolic stability (CLh. int), Mouse [5]: 4590 µL/min/mg
Metabolic stability (CLh. int), Human [6]: 4160 µL/min/mg
SMILES: CNC1CN(c2nc3ncc(C#N)cc3n3cnnc23)C1 [Compound 25, 4-(3-(Methylamino)azetidin-1-yl)pyrido[2,3-e][1,2,4]triazolo[4,3-a]pyrazin-8-carbonitrile]
Mast cell migration (% change from control group) [9]: 48.4^1%
